Measured values from paper PMC7004565, “Nucleotide inhibition of the pancreatic ATP-sensitive K^+ channel explored with patch-clamp fluorometry” (eLife, 2020).
pEC50, pIC50: −log10 of the molar value. “And” between values parts separate entries of the source, which are not always exact repeats. Equal values may be shown once.

Key:
Kir6.2-GFP + SUR1 = Kir6.2-GFP + SUR1 (Homo sapiens, UniProt Q14654); experiment: Current inhibition in excised inside-out patches; assay type: biochemical; parameters: ANAP labelling is specific and only full-length Kir6.2 is expressed at the cell membrane; expressed in transfected cells; host or cells: HEK-293T; conditions: Mg2+-free, Hill fit
Sequence of Kir6.2-GFP + SUR1 (Q14654 whole entry): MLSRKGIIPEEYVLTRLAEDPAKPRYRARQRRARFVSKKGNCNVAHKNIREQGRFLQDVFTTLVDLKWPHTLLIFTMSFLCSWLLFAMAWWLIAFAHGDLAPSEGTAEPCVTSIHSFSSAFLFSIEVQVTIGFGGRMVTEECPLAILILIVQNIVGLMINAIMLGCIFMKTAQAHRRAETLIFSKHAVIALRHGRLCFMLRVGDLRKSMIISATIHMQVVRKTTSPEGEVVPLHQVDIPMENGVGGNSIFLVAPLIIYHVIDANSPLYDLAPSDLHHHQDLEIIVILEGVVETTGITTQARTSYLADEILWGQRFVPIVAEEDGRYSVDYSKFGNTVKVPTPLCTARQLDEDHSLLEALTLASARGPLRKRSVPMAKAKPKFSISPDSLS
Sequence of Kir6.2-GFP + SUR1 (Q09428 whole entry partner): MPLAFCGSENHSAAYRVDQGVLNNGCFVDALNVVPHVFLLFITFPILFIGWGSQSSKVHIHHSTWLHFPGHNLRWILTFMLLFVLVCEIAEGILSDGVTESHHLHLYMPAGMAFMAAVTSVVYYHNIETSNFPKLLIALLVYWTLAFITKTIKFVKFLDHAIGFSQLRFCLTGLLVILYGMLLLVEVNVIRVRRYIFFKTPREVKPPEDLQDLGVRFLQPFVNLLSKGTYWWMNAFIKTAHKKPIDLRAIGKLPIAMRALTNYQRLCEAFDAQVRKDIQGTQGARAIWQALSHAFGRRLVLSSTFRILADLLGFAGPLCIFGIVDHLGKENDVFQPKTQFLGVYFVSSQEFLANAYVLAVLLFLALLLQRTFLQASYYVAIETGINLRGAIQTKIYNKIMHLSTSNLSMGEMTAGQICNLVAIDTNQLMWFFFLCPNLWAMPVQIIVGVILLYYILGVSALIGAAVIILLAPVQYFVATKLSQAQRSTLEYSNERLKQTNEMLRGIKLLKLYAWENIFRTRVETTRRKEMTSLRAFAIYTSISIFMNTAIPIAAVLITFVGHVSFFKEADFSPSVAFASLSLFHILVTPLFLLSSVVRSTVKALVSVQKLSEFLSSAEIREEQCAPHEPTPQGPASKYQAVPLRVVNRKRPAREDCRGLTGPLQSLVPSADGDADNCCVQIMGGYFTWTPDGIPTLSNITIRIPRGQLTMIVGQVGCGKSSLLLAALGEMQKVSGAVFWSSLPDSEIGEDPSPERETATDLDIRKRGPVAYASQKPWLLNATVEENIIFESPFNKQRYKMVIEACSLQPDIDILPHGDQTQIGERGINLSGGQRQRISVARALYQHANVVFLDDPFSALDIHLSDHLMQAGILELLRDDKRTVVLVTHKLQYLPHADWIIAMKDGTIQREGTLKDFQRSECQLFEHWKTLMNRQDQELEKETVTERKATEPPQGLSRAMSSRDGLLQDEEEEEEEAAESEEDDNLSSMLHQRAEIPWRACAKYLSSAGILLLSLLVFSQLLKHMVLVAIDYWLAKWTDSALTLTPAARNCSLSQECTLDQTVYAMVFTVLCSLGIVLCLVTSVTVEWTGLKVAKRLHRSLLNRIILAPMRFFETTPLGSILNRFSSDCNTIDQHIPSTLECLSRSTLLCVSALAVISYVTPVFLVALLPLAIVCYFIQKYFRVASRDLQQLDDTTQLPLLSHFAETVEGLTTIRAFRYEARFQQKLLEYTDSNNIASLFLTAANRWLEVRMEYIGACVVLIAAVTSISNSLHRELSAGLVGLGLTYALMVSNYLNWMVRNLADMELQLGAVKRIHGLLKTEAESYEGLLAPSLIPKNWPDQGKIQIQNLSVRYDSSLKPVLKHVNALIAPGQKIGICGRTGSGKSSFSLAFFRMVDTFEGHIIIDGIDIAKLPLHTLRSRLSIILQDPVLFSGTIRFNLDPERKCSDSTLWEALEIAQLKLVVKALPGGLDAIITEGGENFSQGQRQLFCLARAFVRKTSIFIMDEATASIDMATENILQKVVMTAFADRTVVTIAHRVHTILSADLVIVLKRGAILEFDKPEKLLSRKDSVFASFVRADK
Method: Currents were measured from patches from cells expressing KATP that were excised in the absence of Mg^2+. Under such conditions, nucleotides can bind to both sites on SUR1, but no activation occurs, allowing inhibitory currents to be measured in isolation ([Gribble et al., 1998]; [Ueda et al., 1999]; [Puljung et al., 2019]).

Kir6.2*,C166S-GFP + SUR1 = Kir6.2*,C166S-GFP + SUR1 (Homo sapiens, UniProt Q14654, C166S); experiment: ANAP fluorescence quenching in excised patches (patch-clamp fluorometry); assay type: binding; parameters: ANAP labelling is specific and only full-length Kir6.2 is expressed at the cell membrane; expressed in transfected cells; host or cells: HEK-293T; conditions: excised patches (PCF), Hill fit
Sequence of Kir6.2*,C166S-GFP + SUR1 (Q14654 whole entry C166S): as the sequence (Q14654 whole entry) above, with C166S counted along it
Sequence of Kir6.2*,C166S-GFP + SUR1 (Q09428 whole entry partner): as the sequence (Q09428 whole entry partner) above
Method: Currents were measured as described above.
ANAP bleaching was corrected as for the unroofed binding experiments with Equation 1 (Figure 2—figure supplement 3A). Due to the lower signal-to-noise ratio for PCF compared to the unroofed membranes, we performed experiments from both high-to-low and low-to-high TNP-ATP concentrations to minimise artifacts from our bleaching corrections.

## Nc1ncnc2c1ncn2[C@@H]1O[C@H](COP(=O)(O)OP(=O)(O)OP(=O)(O)O)[C@H]2OC3(O[C@H]21)C([N+](=O)[O-])=CC(=[N+]([O-])[O-])C=C3[N+](=O)[O-] (some centres unmarked) [TNP-ATP, trinitrophenyl-ATP]
Kir6.2-GFP + SUR1; IC50 current inhibition
  pIC50: 5.92 and 5.93
Kir6.2-GFP + SUR1
  h (Hill coefficient) current inhibition: 1.14
Kir6.2*,C166S-GFP + SUR1
  h (Hill coefficient) fluorescence quenching: 0.84
Kir6.2*,C166S-GFP + SUR1; fraction
  Emax: 100%
Kir6.2*,C166S-GFP + SUR1; n = 6
  pEC50: 4.17
